Source: US10493074B2, “Specific trifluoroethyl quinoline analogue for use in the treatment of Sjögren's syndrome” (UCB Biopharma SPRL, priority 2015, dated 2019)

Assays:
[1] = tested on: T and B cells in cannulated salivary glands; test: FACS analysis of lymphocyte profile in salivary glands, inducible murine model of ectopic lymphoid tissue formation (Sjögren's syndrome model); format: in vivo, mice (C57BL/6); settings: for number of T and B cells in cannulated salivary glands: day 15 post-cannulation, vs vehicle
Protocol: N-{(R)-1-[8-Chloro-2-(1-oxypyridin-3-yl)quinolin-3-yl]-2,2,2-trifluoroethyl}-pyrido[3,2-d]pyrimidin-4-ylamine [hereinafter referred to as “Compound (A)”] was investigated in vivo in an inducible model of ectopic lymphoneogenesis in murine salivary glands that mimics Sjögren's syndrome. The results obtained are depicted in the accompanying drawings, in which:
(§1) Compound (A) was assessed in the in vivo murine model of inducible ectopic lymphoid tissue formation described by M. Bombardieri et al. in J. Immunol., 2012, 189, 3767-3776, which is a recognised animal model of Sjögren's syndrome.
(§2) Briefly, wild type (C57BL/6) mice were given replication-defective adenovirus 5 (AdV5) (10^8 p.f.u.) via retrograde cannulation of submandibular gland excretory ducts and sacrificed at specific time points post-cannulation. Compound (A), or vehicle control, was administered by gavage daily both prophylactically and therapeutically, starting at either day 0 or day 3 post-cannulation respectively. In order to assess immune cell status in isolated murine salivary glands, flow cytometry on single cell suspensions and quantitative real time PCR were used to evaluate protein and mRNA expression in the samples.
Replication-defective AdV5-infused salivary glands from mice dosed with either Compound (A) or vehicle were isolated from culled mice at different time points. Glands were dissected and placed in RPMI-1640 (with 2% FCS) (1 mL) on ice. Once all salivary glands were collected, RPMI-1640 was removed and replaced with enzyme mix (RMPI with 2% FCS, 0.8 mg/mL Dispase, 0.2 mg/mL Collagenase P, and 0.1 mg/mL DNase I) (2 mL). Salivary glands were cut into small pieces and tubes were incubated at 37° C. in a water bath, with magnetic stirrers. After 20 minutes, salivary gland fragments were very gently pipetted, using a 1 mL pipette, to disrupt the tissue further and release most cells. The mixture was replaced in the water bath and large fragments were allowed to settle for 30 s, after which time the enzyme mix was removed. […] Cells were filtered through 70 μm nylon mesh and counted using a haemocytometer. […]

[2] = tested on: TLO (tertiary lymphoid organ) associated genes; test: Quantitative RT-PCR of TLO associated genes in salivary glands, inducible murine model of ectopic lymphoid tissue formation (Sjögren's syndrome model); format: in vivo, mice (C57BL/6)
Protocol: Quantitative RT-PCR analysis of mRNA transcripts coding for indicated genes, normalised to housekeeping gene. The relative expression values presented as RQ were calibrated with day 0 post-cannulation salivary gland values.
as §1, §2

## [O-][n+]1cccc(-c2nc3c(Cl)cccc3cc2[C@@H](Nc2ncnc3cccnc23)C(F)(F)F)c1 [Compound (A), N-{(R)-1-[8-Chloro-2-(1-oxypyridin-3-yl)quinolin-3-yl]-2,2,2-trifluoroethyl}-pyrido[3,2-d]pyrimidin-4-ylamine]
[1]; dosed either prophylactically or therapeutically, overall conclusion from the model
  disaggregation of the inflammatory foci and resolution of salivary gland inflammation: effective
[1]; treated prophylactically from day 0, by gavage daily, flow cytometry (FIG. 1)
  number of T and B cells in cannulated salivary glands: significant decrease
[1]; treated therapeutically from day 3 post-cannulation, by gavage daily, flow cytometry (FIG. 2)
  number of T and B cells in cannulated salivary glands: significant decrease
[2]; treated prophylactically from day 0, day 15 post-cannulation, vs vehicle (FIGS. 3 & 4)
  gene expression profile of TLO associated genes: significantly inhibited
[2]; treated therapeutically from day 3 post-cannulation, day 15 post-cannulation, vs vehicle (FIG. 4)
  gene expression profile of TLO associated genes: decrease was conserved
